The values that follow come from patent US20180271792A1, “ORAL DELIVERY OF PHYSIOLOGICALLY ACTIVE SUBSTANCES” (Rezolute, Inc., priority 2017, published 2018).

For one data set, the system named is blood glucose. Briefly: Blood glucose in rats after oral gavage or subcutaneous dosing. It is filed as in vivo. The following applies: subcutaneous 0.3 IU/kg. On the procedure: The peptide and oil for formulations 44-47 were sonicated until they appeared cloudy but homogenous. Then the remaining ingredients were added to each sample. The samples were sonicated again until they appeared cloudy but homogenous. The samples were stored overnight at room temperature. Normal SD Rats (5 rats/group) were fasted overnight before being dosed by oral gavage at insulin equivalent dosage of 75 IU/kg. For comparison, a fifth group (sample 48) was dosed with Humulin R (recombinant human insulin) subcutaneously at 0.3 IU/kg. Blood was collected at predose (−30 min) and post dose (10 min, 30 min, 1 h, 1.5 h, 2 h, 3 h, 4 h, 6 h, 8 h) for glucose measurements by a glucometer. […]

For data set [1] the following is noted: rat, in vivo, po.
Method: In forming samples 12-15, the insulin-PEG (or insulin-PEG inclusion complex) and the fish oil were sonicated for 30 minutes. The DPC was then added to the sonicated mixture and the mixture was briefly swirled or vortexed to mix. The resulting mixtures were kept at room temperature for 1 hour. The samples were administered via an oral gavage to rats at 150 IU/kg (for 5 kDa PEG) and 75 IU/kg (for 2 kDa PEG). At specified intervals, blood was collected from the jugular vein and analyzed for glucose values.
For data set [2] the following is noted: cited from earlier work.

Method for Caco-2 monolayer: In order to estimate the membrane permeability of various formulations, a Caco-2 permeability study was performed. The compounds tested were insulin-PEG (5 kDa), insulin-PEG (5 kDa) inclusion complex, insulin-PEG (5 kDa) inclusion complex and DPC, insulin-PEG (2 kDa), and the insulin-PEG (2 kDa) inclusion complex. All compounds were dissolved in media at a concentration of 1 mg insulin/mL media and added to a Caco-2 monolayer.

“Sample 18: 0.011 mg/kg insulin, administered subcutaneously”: the “time glucose back to baseline (~60 mg/dL)” value in the data set on blood glucose (Example 10) was “about 3 hours”.

Regarding “insulin-PEG (2 kDa): human insulin conjugated with a 2 kDa PEG”, in data set [1], the “serum insulin-PEG / absorption” value is “better absorbed than 5 kDa PEG”. For the same substance, in the data set with Caco-2 monolayer, the “% of the insulin-PEG permeating through the cell layer after 3 hours” value is reported as 1%.

Take “48: Humulin R (recombinant human insulin) dosed subcutaneously at 0.3 IU/kg [Sample 48]”: the “time glucose back at baseline” value in the data set on blood glucose (Example 14) turned out to be 3 h.

Consider “GLP-1: a 31 amino acid peptide, an incretin, a hormone that can decrease blood glucose levels”, for which the in vivo half-life result in data set [2] is “less than two”.

For “Sample 19: 0.011 mg/kg insulin, administered subcutaneously”, the “time glucose back to baseline (~60 mg/dL)” value in the data set on blood glucose (Example 11) was “about 3 hours”. For the same substance, the “reduction in blood glucose to, within 30 minutes” value in the data set on blood glucose (Example 11, all rats) came out at 20 mg/dL.

In the case of “Sample 17: 0.015 mg/kg insulin-PEG (2 kDa), administered subcutaneously”, the “time glucose back to baseline (~60 mg/dL)” value in the data set with blood glucose (Example 10) is listed as “about 4 hours”.
